According to ChEMBL document CHEMBL1201862, “PubChem BioAssay data set” (2004):
Activity calls are given as the source filed them.

Key:
[1] = Luminescence Cell-Based Dose Confirmation HTS to Identify Activators of 5'UTR Stem-Loop Driven Alpha-Synuclein mRNA Translation in H4 Neuroglioblastoma Cells. [Related pubchem assays: 1829 (Project Summary), 1814 (Primary HTS)]; format: functional
[2] = Luminescence Cell-Based Dose Response HTS to Identify Activators of Luciferase Translation or Activity in H4 […] Cells. [Related pubchem assays: 1829 (Project Summary), 1814 (Primary HTS)]; format: functional
cells [3] = format: functional, cell-based
H4 = test: Luminescence Cell-Based Dose Response HTS to Identify Activators of 5'UTR Stem-Loop Driven Prion Protein mRNA Translation in H4 Neuroglioblastoma Cells. [Related pubchem assays: 1829 (Project Summary), 1814 (Primary HTS)]; format: functional; conditions: Homo sapiens
cells [4] = format: functional, cell-based; remark: listed apart in the source
Caspase-3 = biological target: T1, Caspase-3 (Homo sapiens, UniProt P42574); format: functional;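 also: Dose-response selectivity test against caspase-3 for candidate inhibitors of sentrin-specific proteases (SENPs)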
T1 sequence (P42574 whole entry): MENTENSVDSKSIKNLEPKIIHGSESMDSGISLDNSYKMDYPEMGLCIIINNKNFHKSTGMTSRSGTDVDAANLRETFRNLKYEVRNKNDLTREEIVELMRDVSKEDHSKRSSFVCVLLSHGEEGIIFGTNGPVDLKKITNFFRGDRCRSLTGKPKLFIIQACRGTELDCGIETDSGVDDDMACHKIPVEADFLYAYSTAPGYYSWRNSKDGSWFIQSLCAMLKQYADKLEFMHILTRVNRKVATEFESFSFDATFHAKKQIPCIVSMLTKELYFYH

[5] = biological target: T2, Sentrin-specific protease 7 (Homo sapiens, UniProt Q9BQF6); format: functional;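 also: Luminescence-based dose-response confirmation of ultra-high-throughput screening hits, measuring inhibition of SENP7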
T2 sequence (Q9BQF6 whole entry): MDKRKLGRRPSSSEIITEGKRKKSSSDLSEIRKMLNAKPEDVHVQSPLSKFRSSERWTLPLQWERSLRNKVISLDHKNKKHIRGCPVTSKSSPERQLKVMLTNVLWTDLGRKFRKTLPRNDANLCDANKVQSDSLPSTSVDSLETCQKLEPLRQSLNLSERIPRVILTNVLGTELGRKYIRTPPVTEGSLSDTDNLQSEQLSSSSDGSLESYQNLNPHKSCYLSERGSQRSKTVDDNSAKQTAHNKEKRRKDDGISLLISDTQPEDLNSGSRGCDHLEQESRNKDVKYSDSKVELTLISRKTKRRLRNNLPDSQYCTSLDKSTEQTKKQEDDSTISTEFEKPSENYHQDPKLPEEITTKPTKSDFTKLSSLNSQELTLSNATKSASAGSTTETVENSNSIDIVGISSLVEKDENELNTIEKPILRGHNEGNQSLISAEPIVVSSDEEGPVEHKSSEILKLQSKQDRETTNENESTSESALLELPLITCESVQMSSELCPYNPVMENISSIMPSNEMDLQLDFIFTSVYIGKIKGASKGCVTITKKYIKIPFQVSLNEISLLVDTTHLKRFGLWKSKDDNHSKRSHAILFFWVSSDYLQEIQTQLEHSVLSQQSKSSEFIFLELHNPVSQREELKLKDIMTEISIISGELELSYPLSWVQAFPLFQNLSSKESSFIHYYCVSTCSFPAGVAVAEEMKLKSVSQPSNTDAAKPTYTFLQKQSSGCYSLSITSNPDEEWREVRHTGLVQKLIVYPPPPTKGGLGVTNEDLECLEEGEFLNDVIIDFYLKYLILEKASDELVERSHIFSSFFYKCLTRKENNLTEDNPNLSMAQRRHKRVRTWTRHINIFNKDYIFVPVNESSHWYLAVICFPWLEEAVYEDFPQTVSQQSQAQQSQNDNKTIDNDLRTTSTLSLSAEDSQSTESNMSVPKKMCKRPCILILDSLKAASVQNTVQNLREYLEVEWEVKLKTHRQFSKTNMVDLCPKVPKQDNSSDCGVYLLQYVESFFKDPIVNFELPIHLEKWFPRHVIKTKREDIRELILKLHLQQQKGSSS

Nonstructural protein 1 = Nonstructural protein 1 (Influenza A virus, UniProt Q194T2); format: functional, Influenza A virus (A/California/07/2009(H1N1))
Nonstructural protein 1, sequence (Q194T2 whole entry): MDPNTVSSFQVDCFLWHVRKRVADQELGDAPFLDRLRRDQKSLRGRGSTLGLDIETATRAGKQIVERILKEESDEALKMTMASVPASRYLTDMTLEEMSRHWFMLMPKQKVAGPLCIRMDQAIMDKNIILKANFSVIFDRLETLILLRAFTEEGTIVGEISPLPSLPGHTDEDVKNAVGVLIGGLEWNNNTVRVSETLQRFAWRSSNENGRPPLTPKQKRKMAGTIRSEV

[6] = biological target: T3, Sentrin-specific protease 6 (Homo sapiens, UniProt Q9GZR1); format: functional;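 also: Luminescence-based dose-response confirmatory assay of SENP6 inhibition, following up an ultra-high-throughput screen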
T3 sequence (Q9GZR1 whole entry): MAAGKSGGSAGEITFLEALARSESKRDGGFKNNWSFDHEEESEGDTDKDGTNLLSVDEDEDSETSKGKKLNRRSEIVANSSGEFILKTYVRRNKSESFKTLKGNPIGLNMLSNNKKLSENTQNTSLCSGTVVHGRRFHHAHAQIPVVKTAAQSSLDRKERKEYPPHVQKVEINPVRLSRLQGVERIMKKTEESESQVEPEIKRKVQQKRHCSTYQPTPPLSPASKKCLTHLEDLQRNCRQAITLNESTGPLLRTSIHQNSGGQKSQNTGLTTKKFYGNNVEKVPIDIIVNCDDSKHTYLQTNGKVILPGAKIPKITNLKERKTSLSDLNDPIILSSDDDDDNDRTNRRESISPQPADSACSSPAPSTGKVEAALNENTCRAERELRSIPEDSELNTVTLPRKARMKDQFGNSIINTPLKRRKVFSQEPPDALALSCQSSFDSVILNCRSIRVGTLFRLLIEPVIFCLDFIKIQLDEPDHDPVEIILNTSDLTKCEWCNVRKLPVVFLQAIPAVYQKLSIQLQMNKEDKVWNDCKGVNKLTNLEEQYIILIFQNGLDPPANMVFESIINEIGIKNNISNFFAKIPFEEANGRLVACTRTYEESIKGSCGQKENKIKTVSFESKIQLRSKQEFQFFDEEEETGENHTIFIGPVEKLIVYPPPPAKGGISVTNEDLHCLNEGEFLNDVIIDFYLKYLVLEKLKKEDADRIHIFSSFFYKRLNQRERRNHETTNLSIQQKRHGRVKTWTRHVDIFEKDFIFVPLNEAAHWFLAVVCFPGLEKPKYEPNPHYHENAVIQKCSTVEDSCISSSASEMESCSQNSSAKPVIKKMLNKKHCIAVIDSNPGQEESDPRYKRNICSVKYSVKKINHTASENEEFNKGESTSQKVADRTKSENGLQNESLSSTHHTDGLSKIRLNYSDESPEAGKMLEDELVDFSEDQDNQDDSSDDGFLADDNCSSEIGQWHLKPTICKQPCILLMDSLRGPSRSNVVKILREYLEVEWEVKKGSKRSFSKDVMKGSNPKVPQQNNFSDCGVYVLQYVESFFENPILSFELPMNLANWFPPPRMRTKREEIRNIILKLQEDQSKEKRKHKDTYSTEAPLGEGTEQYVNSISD

[7] = biological target: T4, Sentrin-specific protease 8 (Homo sapiens, UniProt Q96LD8); format: functional;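 also: luminescence read-out of SENP8 inhibition, dose-response confirmation following an ultra-high-throughput screen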
T4 sequence (Q96LD8 whole entry): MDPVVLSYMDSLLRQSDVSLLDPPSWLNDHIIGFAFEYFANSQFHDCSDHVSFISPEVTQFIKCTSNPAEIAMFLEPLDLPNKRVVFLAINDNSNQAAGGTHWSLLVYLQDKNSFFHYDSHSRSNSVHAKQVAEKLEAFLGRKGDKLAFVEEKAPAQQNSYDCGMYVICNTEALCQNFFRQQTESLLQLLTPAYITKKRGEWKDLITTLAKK

[8] = biological target: T5, Oxysterols receptor LXR-beta (Homo sapiens, UniProt P55055); format: functional, cell-based;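 also: Cell-based luminescence dose-response assay of agonist activity at LXR, run as a confirmatory counterscreen to a daf-12 agonist screen; HEK293 cells with Gal4-LXR fusion and GAL4-driven luciferase reporter; agonist potency from rising luciferase signal of a Gal4-LXR reporter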
T5 sequence (P55055 whole entry): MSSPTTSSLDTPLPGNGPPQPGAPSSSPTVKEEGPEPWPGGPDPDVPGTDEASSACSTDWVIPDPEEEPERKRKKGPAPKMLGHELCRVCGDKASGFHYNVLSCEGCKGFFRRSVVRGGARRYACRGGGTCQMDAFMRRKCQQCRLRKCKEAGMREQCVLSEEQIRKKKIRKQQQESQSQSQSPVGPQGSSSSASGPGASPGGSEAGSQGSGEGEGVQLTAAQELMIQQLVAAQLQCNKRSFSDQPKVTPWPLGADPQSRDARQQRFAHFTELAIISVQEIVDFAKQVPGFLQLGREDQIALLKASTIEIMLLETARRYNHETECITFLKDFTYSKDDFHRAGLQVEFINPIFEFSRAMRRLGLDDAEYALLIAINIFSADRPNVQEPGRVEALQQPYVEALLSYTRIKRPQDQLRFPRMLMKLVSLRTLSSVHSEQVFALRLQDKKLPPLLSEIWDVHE

cells [9] = test: cells
[10] = Dd2 parasite growth inhibition in erythrocytes – SYBR Green, dry powder samples, set 9, dose response (AID 1159568); format: functional, cell-based
Kallikrein-7 = Kallikrein-7 (Homo sapiens, UniProt P49862); test: Fluorescence Intensity-based biochemical primary high throughput dose response assay to identify activators of kallikrein-7 (K7) zymogen.
Kallikrein-7, sequence (P49862 whole entry): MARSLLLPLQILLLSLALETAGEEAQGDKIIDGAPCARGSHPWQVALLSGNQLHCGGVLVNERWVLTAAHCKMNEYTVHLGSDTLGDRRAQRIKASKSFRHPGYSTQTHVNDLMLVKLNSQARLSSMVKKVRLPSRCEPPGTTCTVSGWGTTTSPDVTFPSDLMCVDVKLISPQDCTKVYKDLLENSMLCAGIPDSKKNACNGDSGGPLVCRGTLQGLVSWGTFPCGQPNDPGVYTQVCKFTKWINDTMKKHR

[11] = viability loss in THP-1 monocytes – THP-1 cells, cytotoxicity control for Vif-APOBEC3G degradation inhibitor project, dose response (AID 1117359); format: functional; conditions: THP-1
Paired box protein Pax-8 = Paired box protein Pax-8 (Homo sapiens, UniProt Q06710); test: PAX8 transcriptional activity inhibition in RMG-I – RMG-I cells, luciferase, cherry-pick, dose response (AID 687027); format: functional, cell-based;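 also: luciferase reporter driven by Pax8 target thyroperoxidase promoter measured by SteadyGlo luminescence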
Paired box protein Pax-8, sequence (Q06710 whole entry): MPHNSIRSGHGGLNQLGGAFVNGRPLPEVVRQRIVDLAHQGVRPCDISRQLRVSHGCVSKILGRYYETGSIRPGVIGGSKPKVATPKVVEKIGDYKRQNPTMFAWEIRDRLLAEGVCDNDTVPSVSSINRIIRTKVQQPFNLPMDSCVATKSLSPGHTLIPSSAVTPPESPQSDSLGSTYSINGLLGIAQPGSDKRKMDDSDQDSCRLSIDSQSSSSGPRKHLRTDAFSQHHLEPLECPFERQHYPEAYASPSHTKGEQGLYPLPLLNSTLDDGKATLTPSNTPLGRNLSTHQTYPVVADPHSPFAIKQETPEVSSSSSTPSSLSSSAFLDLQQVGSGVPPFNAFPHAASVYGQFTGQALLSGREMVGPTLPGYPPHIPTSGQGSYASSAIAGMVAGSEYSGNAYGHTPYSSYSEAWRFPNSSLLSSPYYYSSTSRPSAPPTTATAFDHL

[12] = A2780 cell killing – plate reader, dry powder samples, cytotoxicity control, dose response (AID 743046); format: functional, cell-based
[13] = biological target: Disintegrin and metalloproteinase domain-containing protein 17 (Homo sapiens, UniProt P78536); test: exosite inhibitors of ADAM17, dose response, biochemical (AID 743260)
Disintegrin and metalloproteinase domain-containing protein 17, sequence (P78536 whole entry, the tested form may be a part): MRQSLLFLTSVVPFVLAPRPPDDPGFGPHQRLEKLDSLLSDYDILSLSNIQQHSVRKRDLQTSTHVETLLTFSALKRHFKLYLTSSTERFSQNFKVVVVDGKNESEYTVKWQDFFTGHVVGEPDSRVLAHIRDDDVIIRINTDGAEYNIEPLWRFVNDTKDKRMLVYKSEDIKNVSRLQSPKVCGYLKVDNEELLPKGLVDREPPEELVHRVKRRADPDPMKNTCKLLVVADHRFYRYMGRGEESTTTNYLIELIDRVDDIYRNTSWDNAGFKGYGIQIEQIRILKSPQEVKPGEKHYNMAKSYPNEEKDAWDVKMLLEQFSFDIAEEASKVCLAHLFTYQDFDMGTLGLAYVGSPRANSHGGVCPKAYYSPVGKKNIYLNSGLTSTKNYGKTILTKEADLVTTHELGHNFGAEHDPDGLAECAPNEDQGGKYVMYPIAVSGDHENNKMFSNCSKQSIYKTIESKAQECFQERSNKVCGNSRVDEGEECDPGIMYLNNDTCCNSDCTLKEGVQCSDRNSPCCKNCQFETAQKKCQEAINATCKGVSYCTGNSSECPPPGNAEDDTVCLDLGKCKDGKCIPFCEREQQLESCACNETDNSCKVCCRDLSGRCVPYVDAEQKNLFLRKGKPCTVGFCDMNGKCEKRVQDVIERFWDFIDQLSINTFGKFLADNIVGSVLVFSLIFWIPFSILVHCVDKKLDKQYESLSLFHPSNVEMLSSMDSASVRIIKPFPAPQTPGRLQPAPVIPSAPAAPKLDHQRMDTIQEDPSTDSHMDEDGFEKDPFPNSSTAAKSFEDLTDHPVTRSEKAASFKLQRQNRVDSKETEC

[14] = inhibition of ADAM10 peptide cleavage – biochemical, FRET peptide substrate, recombinant human ADAM10, selectivity assay for ADAM17 exosite inhibitor project, dose response (AID 743259);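 also: ADAM10 enzyme cleaving a FRET peptide substrate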
[15] = biological target: Luciferin 4-monooxygenase (Photinus pyralis, UniProt P08659); test: inhibition of purified Photinus pyralis luciferase – biochemical, luminescence, dose response (AID 1891)
Luciferin 4-monooxygenase, sequence (P08659 whole entry): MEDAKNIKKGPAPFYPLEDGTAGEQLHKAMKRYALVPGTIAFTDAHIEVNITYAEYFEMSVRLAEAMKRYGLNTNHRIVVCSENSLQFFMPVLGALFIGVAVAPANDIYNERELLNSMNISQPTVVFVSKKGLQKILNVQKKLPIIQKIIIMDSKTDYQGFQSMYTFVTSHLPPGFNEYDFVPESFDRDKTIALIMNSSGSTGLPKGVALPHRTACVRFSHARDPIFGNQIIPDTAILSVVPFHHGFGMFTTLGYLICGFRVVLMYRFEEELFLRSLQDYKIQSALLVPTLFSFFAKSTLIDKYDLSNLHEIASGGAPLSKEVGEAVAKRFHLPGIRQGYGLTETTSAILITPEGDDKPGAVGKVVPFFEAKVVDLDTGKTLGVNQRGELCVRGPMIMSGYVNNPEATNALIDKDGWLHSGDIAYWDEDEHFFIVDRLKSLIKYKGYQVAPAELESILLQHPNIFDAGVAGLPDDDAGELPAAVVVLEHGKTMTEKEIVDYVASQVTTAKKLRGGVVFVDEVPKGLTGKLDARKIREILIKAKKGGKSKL

[16] = Luminescence Cell-Based Dose Confirmation HTS to Identify Inhibitors of Platelet Dense Granule Release. [Related pubchem assays: 1663 (Primary HTS), 1678 (Summary of Project)]; format: functional
Caspase-6 = biological target: T6, Caspase-6 (Homo sapiens, UniProt P55212); test: inhibition of CASP6 peptide cleavage – biochemical, VEID-R110 fluorescence, cherry-pick, dose response (AID 720632)
T6 sequence (P55212 whole entry): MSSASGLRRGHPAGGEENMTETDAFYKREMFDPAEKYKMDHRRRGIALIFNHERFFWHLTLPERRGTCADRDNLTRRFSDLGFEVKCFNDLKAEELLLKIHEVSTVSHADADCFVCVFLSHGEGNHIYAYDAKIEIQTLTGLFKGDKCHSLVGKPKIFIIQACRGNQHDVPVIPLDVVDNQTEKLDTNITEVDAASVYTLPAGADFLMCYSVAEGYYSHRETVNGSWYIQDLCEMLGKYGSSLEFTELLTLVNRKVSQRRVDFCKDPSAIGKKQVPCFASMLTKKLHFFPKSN

[17] = biological target: T7, Carboxy-terminal domain RNA polymerase II polypeptide A small phosphatase 1 (Homo sapiens, UniProt Q9GZU7); test: CTDSP1 inhibitors, concentration-response, biochemical, absorbance readout, ultra-high-throughput screen actives (AID 540297); format: functional
T7 sequence (Q9GZU7 whole entry): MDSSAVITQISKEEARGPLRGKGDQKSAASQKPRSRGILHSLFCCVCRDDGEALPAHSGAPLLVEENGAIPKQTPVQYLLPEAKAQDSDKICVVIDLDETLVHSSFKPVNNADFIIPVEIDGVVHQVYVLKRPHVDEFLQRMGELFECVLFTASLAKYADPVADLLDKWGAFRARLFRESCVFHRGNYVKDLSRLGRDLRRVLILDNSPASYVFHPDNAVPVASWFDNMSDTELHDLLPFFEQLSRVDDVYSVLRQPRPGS

With c1ccc(N=Nc2ccc3cccccc2-3)cc1 the EC50 [1] was 0.771 µM (active), the EC50 [2] was 1.1 µM (active) and the EC50 (cells [3]) was > 350 µM (not active). For the same molecule, the EC50 (H4) was > 120 µM (not active), the EC50 (cells [4]) was 6.29 µM (active) and the IC50 (Caspase-3) was 24.5 µM (active). The IC50 [5] was 4.59 µM (active), the IC50 (Nonstructural protein 1) was 10.8 µM (active) and the IC50 [6] was 13.9 µM (active). For the same molecule, the IC50 [7] was 22.3 µM (active), the EC50 [8] was > 67.5 µM (inactive) and the EC50 (cells [9]) was > 67.5 µM (inactive).

In the case of CCCC#Cc1ccc2c(c1)O[C@H](CN(C)Cc1ccccn1)[C@H](C)CN([C@@H](C)CO)S2(=O)=O, the AC50 [10] was 3.94 µM (active).

With C[C@@H]1CN([C@H](C)CO)C(=O)c2ccccc2-c2ccccc2CO[C@H]1CN(C)C(=O)[C@H](Cc1ccccc1)N(C)C the AC50 [10] was 11.9 µM (active).

With CCCc1cc(NCCOCCO)n2c(nc3ccccc32)c1C#N the EC50 (Kallikrein-7) was > 2.57 µM (active).

With O=C(CCc1c[nH]c2ccccc12)N1CCN(c2ccc(O)cc2)CC1 the CC50 [11] was > 40 µM (active).

In the case of COC(=O)C1=NN(c2ccccc2)C2C(=O)N(c3ccccc3OC)C(=O)C12 (stereo not drawn), the EC50 (Kallikrein-7) was > 69.5 µM (inactive).

In the case of Clc1ccc(CNc2ccc(CNc3nc[nH]n3)cc2)c(Cl)c1, the CC50 [11] was > 40 µM (active).

For C[C@@H]1CN([C@H](C)CO)C(=O)c2c(c3ccccc3n2C)-c2ccccc2CO[C@H]1CN(C)S(=O)(=O)c1cccc(F)c1, the AC50 (Paired box protein Pax-8) was 19.2 µM (active) and the AC50 [12] was 4.51 µM (active).

For COc1ccc(NC(=O)c2ccc(NC(=O)CSc3nc(N)cc(O)n3)cc2)cc1, the EC50 (Kallikrein-7) was 22.4 µM (inactive).

For COc1cccc(C(=O)c2c(-c3ccccc3)ncc3cc(OC)c(OC)cc23)c1, the IC50 [13] was > 69.4 µM (inactive) and the IC50 [14] was > 69.4 µM (inactive).

In the case of CCOC(=O)c1c(C)nn(Cc2cccc(Cl)c2)c1N, the CC50 [11] was > 40 µM (active).

With Cc1ccc(S(=O)(=O)N2CCC(=O)N([C@H](COC(=O)Nc3ccccc3)Cc3ccccc3)CC2)cc1 the IC50 [13] was > 69.4 µM (inactive) and the IC50 [14] was > 7.72 µM (active).

For O=C(O)C1C2C=CC(C2)C1C(=O)NCc1cccs1 (stereo not drawn), the EC50 [15] was > 112 µM (not active), the EC50 [16] was > 112 µM (not active) and the AC50 (Caspase-6) was 14.8 µM (active).

With Cc1cccc(NC(=O)CSc2nnc(SCc3ccc(Cl)cc3)s2)c1 the IC50 [13] was > 69.4 µM (inactive) and the IC50 [14] was > 69.4 µM (inactive).

With COc1ccc(S(=O)(=O)NNC(=O)Cc2csc(C)n2)cc1[N+](=O)[O-] the IC50 [17] was 16.3 µM (active) and the AC50 (Caspase-6) was 8.98 µM (active).
